Entries after “also recorded” stand apart in the source; their conditions may differ. Where two headings read alike, the source gives them in different places.
How the values were obtained:
[1] = tested on: quinone reductase (QR) in H9 cells; assay: Elevation of quinone reductase (QR) in H9 cells; assay type: cell-based, human; details: for fold induction at 30 µM / fold induction at 60 µM / fold induction at 120 µM: Homo sapiens, read-out: Quinone reductase, treated to control value
Description: Five ml of medium was added to T-25 flasks and DMSO containing tests compounds were added to a final concentration of 0.1%. Control medium contained 0.1% DMSO. After the drugs were added, 5×10^6 cells in 5 ml of medium was added to each T-25 flask. The cells were grown at 37° C. in a humidified incubator supplemented with 5% CO2 until harvested (N=3 flasks/group). At the indicated times, cells were isolated by centrifugation (500×g×10 min) and were washed three times by adding 10 ml of ice-cold DPBS, mixing, and centrifuging in a refrigerated centrifuge (500×g×10 min) to isolate the cell pellets. The cells were then lysed by the addition of 400 μl of ice-cold DPBS containing 0.5% Triton X-100 and vortexing. Supernatants were then isolated by centrifuging the lysates (5000×g×20 min). Samples were kept on ice or refrigerated until the reagents for QR or GSH spectrophotometric assays were added to the aliquoted microtiter plates. QR levels were determined by aliquoting 10 μl/well of supernatant in a 96-well plate and measuring the activity by the assay described by Prochaska and Santamaria (20) except that the final NADP^+ concentration was 200 μM (21). Samples were assayed in quadruplicate, and dicoumarol inhibitable-rates (which generally represented less than 5% of the total rate) were also measured. Spectrophotometric blanks contained 10 μl of DPBS with 0.5% Triton X-100. For the GSH assay, 300 μl of sample was placed in a centricon-10microconcentrator and centrifuged (5000×g×45 min) until enough ultrafiltrate could be collected. 50 μl/well of sample in quadruplicate was placed in a 96 well "half-area" plate after which 20 μl of 1 mM Ellman's reagent dissolved in DPBS was added. The yellow color (22) developed within 5 min and was scanned with a uvmax microtiter scanner (Palo Alto, Calif.) at 405 nm. Spectrophotometric blanks contained 50 μl DPBS with 0.5% Triton X-100 and 20 μl of 1 mM Ellman's reagent in DPBS. The optical densities of the specimens were calibrated to a GSH standard curve. Protein contents were determined in 3 ml cuvettes by the Bradford method (23). The protein content in the ultrafiltrates employed for GSH determinations were negligible (<0.01 mg/ml).
We confirmed that the induction of QR in microtiter wells mirrored our results in T-25 flasks by using the method of Prochaska and Santamaria (20). Medium (100 μl) containing 0.1% final concentration DMSO was added to all wells except columns designated to contain the highest concentration of drug or spectrophotometric blanks in duplicate sets of U-bottomed microtiter plates. 200 μl of media containing drug (final DMSO concentration=0.1%) was added to the empty column of wells and then diluted in 2-fold serial dilutions across. After the serial dilutions were performed, 100 μl of media containing 1×10^6 cells/ml was added to each well, and the plates were placed in a 37° C. incubator for 48 h. One set of plates was assayed as described (21) for QR activity, the other was assayed for cell number by the method for Alley et al. (24).

[2] = tested on: HIV-1 (HTLVIIIB); assay: microbe, parasite or virus in culture; assay type: cell-based
Description: The effects for test compounds were assessed by means of both IFA and p24 release. In general, the following protocol was followed: H9 cells were infected with HIV-1 at 1000 50% infective doses of viruses/10^6 cells. Virus was allowed to adsorb for 1 h, after which unadsorbed virus was removed by centrifugation. The cells were resuspended and washed twice with PBS (without Ca^+2 or Mg^+2 salts) and centrifuged to collect the cell pellet (150×g×10 min). Cells were suspended in fresh medium and added at a final cell density of 500,000 cells/ml in a 96-well plate with media containing 0.1% DMSO and various concentrations of test compounds. The cells were re-fed freshly prepared media containing 0.1% DMSO±test compounds on day four (for preinduction experiments, cells were exposed to inducers on days -2, 0, and +4 days relative to infection). After seven days, cells were examined for cytoxicity by trypan blue exclusion, the degree of infection with HIV-1 by IFA, and the supernatants were assayed for p24 levels according to the manufacturer's directions. The IFA procedure can be summarized as follows: The cells were washed twice in PBS and were placed in 5 mm 12-well slides. After allowing the slides to dry and fixing the cells with acetone for 5 min, 10 μl of HIV-1 positive serum in 40 μl PBS was added to each well and allowed to incubate at 37° C. for 30 min. After incubation, the slides were washed twice with PBS and incubated at 37° C. for 30 min with 2.5 μl goat anti-human IgG-fluorescein isothiocyanate conjugate in 50 μl PBS containing 0.01% Evans Blue per well. The slides were then washed twice with PBS, dried, and mounted with 50% glycerol in PBS, and scored for the percentage of fluorescent cells by fluorescent microscopy.

[3] = target: T1, HIV-1 reverse transcriptase (RT) (Human immunodeficiency virus type 1 group M subtype B, UniProt P04585); assay: Time-dependent (irreversible) inhibition of HIV-1 reverse transcriptase after preincubation; assay type: biochemical
T1 construct: Recombinant HIV-1 reverse transcriptase (RT) was obtained from Worthington (Freehold, N.J.); purchased Worthington (Freehold, N.J.)
Description: FIG. 6. […] RT was preincubated for the times indicated with oltipraz dissolved in DPBS containing 1 mg/ml bovine serum albumin, 0.13% DMSO, and either 4 μM TTP or 5 μg/ml poly(A):2.5 μg/ml oligo(dT). After incubation, 10 μl aliquots in triplicate were added to 25 μl of a reaction cocktail containing 4 μM TTP, 5 μg/ml poly(A), and 2.5 μg/ml oligo(dT) and assayed for TTP incorporation into DNA over 30 min. as described by Flexner, et al. (25). The insets are Kitz-Wilson transformations (41).
Reverse transcriptase assays were performed as described by Flexner, et al. (25) using recombinant HIV-1 RT as the source of enzyme. Dilutions and assay were carried out in 96-well "half-area" plates. The enzyme with various concentrations of test compounds were dissolved in DPBS containing 1% w/v BSA and diluted in 50 μl volumes; 10 μl aliquots in triplicate were transferred to another plate for the enzyme assay. The reactions were initiated by the addition of 25 μl/well of buffer containing 50 mM Tris.cndot.Cl (pH 8.0), 75 mM KCl, 1 mM dithiothreitol, 2 mM MgCl2, 5 μg/ml poly(A), 2.5 μg/ml oligo (dT), 10 μCi/ml ^32 p TTP with or without unlabeled TTP. […] TTP incorporation was measured by spotting 20 μl of the reaction cocktail onto DE81 paper, washing the paper with 4×5 min washes of 300 mM NaCl and 30 mM sodium citrate (pH 7.0), drying the paper, and counting the paper by liquid scintillation counting. The assays performed with oltipraz and 1,2-dithiole-3-thione contained 0.29% final concentration DMSO.

[4] = tested on: HTLV-I reverse transcriptase; details: MT-2 (HTLV-I-infected) cells, FIG. 7
Description: MT-2 is a lymphocytic cell-line that is transformed by, and is antigen positive for HTLV-I. HTLV-I can be detected in supernatants of MT-2 cultures by monitoring reverse transcriptase activity. Using the MT-2 system compounds that are inhibitors of HTLV-I reverse transciptase can be identified. MT-2 cells are washed and incubated in triplicate with various concentrations of the test compounds, positive drug controls, negative drug controls or media alone. A cell-line that is negative for HTLV-I, such as H9, is used as a negative reverse transcriptase control. After 72 hours of incubation, culture supernatants are harvested and tested for reverse transcriptase activity as described (25). Inhibition of reverse transcriptase activity is calculated by comparing the radioactive counts in the experimental compounds to the MT-2 non-drug controls. ED50's can be calculated for each compound.

[5] = single 250 mg dose, adults, cited from earlier work
[6] = tested on: glutathione S-transferases; details: Schistosoma mansoni; cited from earlier work

Cc1c(-c2cnccn2)ssc1=S [compound 11, 4-methyl-5-(2-pyrazinyl)-1,2-dithiole-3-thione]
Quinone Reductase Specific Activity ([1]; 24 h, 30 μM): 62.0 ± 2.0 nmol/min/mg | Quinone Reductase Specific Activity ([1]; 24 h, 60 μM): 83.5 ± 1.7 nmol/min/mg | Quinone Reductase Specific Activity ([1]; 24 h, 120 μM): 109 ± 28 nmol/min/mg | Quinone Reductase Specific Activity ([1]; 48 h, 30 μM): 52.7 ± 2.9 nmol/min/mg | Quinone Reductase Specific Activity ([1]; 48 h, 60 μM): 68.0 ± 2.9 nmol/min/mg | Quinone Reductase Specific Activity ([1]; 48 h, 120 μM): 79.7 ± 0.28 nmol/min/mg | Quinone Reductase Specific Activity ([1]; 72 h, 30 μM): 40.4 ± 4.7 nmol/min/mg | Quinone Reductase Specific Activity ([1]; 72 h, 60 μM): 47.3 ± 4.6 nmol/min/mg | Quinone Reductase Specific Activity ([1]; 72 h, 120 μM): 75.0 ± 8.6 nmol/min/mg | fold induction at 30 µM ([1]; H9, 24 h): 1.1 | fold induction at 60 µM ([1]; H9, 24 h): 1.48 | fold induction at 120 µM ([1]; H9, 24 h): 1.93 | fold induction at 30 µM ([1]; H9, 48 h): 1.52 | fold induction at 60 µM ([1]; H9, 48 h): 1.96 | fold induction at 120 µM ([1]; H9, 48 h): 2.28 | fold induction at 30 µM ([1]; H9, 72 h): 0.86 | fold induction at 60 µM ([1]; H9, 72 h): 1.01 | fold induction at 120 µM ([1]; H9, 72 h): 1.6 | elevation of QR ([1]; dose- and time-dependent, H9 cells): least effective inducer of QR and GSH | inhibition of HIV-1 replication, result in words ([2]; H9 cells): effective | inhibitory potency less than that of AZT (HIV-1 replication) ([2]; H9 cells, relative to AZT (FIG. 3)): approximately 100 fold | IC50 ([2]; Human immunodeficiency virus 1, H9, read-out: IC50 HIV-1 replication (Exp 1)): 2 µM | IC50 ([2]; Human immunodeficiency virus 1, H9, read-out: IC50 HIV-1 replication (Exp 2)): 3 µM | IC50 ([2]; Human immunodeficiency virus 1, H9, read-out: IC50 HIV-1 replication as determined by IFA): 9.7 ± 2 µM | effect of pre-treatment of H9 cells with inducers on anti-HIV-1 activity ([2]; inducers 3-4 days prior to exposure to virus, listed as oltipraz): did not increase the antiviral effect; also recorded: no enhancement of the anti-HIV-1 activity | irreversible inhibition of reverse transcriptase ([3]; kinetic behaviour): behaves kinetically as an irreversible inhibitor of RT | Ki ([3]; preincubation with TTP, experiment of FIG. 6, Kitz-Wilson): 15.6 µM | RT inactivation in the presence of poly(A):oligo(dT) ([3]; preincubation with poly(A):oligo(dT), FIG. 6 lower, listed as oltipraz): indistinguishable from rates of RT inactivation in its absence; also recorded: inconsistent with irreversible inhibition | Ki ([3]; preincubation, N=5 independent experiments): 25.9 ± 3.4 µM | kinact ([3]; preincubation, N=5 independent experiments, read-out: k3 (limiting rate of inactivation) (converted)): 1.44e-05 s⁻¹ | kinact ([3]; read-out: k3 (limiting rate of inactivation), preincubation with TTP, experiment of FIG. 6, Kitz-Wilson): 2.33e-05 s⁻¹ | effect on levels of RT activity in media [4]: dose-dependent effect | Cmax ([5]; read-out: peak serum level): > 4 µM | peak serum level [5]: greater than 1 μg/ml | inhibition of glutathione S-transferases [6]: irreversibly inhibits

Reference: US5691338A, “1,2-dithiole-3 thiones for the treatment of reverse transcriptase-dependent viral infections” (priority 1995, dated 1997)
